{"source": "patent US7534769B2", "about": "“Compositions and methods for enhancing delivery of therapeutic agents to cells” (Canji, Inc., priority 1996, dated 2009)", "key": {"bladder epithelium [1]": {"test_system": "bladder epithelium", "format": "in vivo, rat", "quoted_text": "Nine female buffalo rats (Harlan Sprague Dawley) were anesthetized with isoflurane and received a single intravesical administration of a human recombinant adenovirus encoding the lacZ gene (rAd-βgal). […] The administered material was retained in the bladder for 45 minutes. The bladder were then flushed with PBS, and the animals were permitted to recover from the procedure. Two days after administration, rats were sacrificed, bladders were harvested, fixed, and whole organs were stained with an Xgal (5-Bromo-4-chloro-3-indolyl-β-D-galactoside) solution to evaluate reporter gene transfer. Xgal-stained tissues were then paraffin embedded, sectioned, and counter stained with hematoxylin and eosin.\nAfter a 45 minute incubation, the bladders were flushed with PBS, and animals were permitted to recover from anesthesia."}, "[2]": {"test_system": "bladder, kidney and liver homogenates", "test": "ACNRB transgene expression by RT-PCR after intravesical administration", "format": "in vivo, mouse", "method": "After the virus was retained in the bladder for 45 minutes, the animals were permitted to recover and void. […] Following amplification (30 cycles) RT-PCR products were separated on a 10% polyacrylamide gel, stained with ethidium bromide, and photographed. […] Untreated samples and bladder samples without the reverse transcriptase (RT) provided controls for contaminating DNA.\nThe instilled material was retained in the bladder for approximately 45 minutes, and animals were permitted to recover from the procedure. Mice were sacrificed 1, 2, 3, 4, 5, 6, 7, and 14 days after administration (N=4/time) for analysis. Bladders, livers, and kidneys were harvested and snap frozen in liquid nitrogen for subsequent analysis.\nAfter the virus was retained in the bladder for 45 minutes, the animals were permitted to recover. […] Transgene expression was determined using RT-PCR. Tissues were rinsed in RNAse free water, homogenized, digested in Tri-Reagent (Molecular Research Center), and total cellular RNA extracted. […] RT-PCR was performed in the Perkin Elmer 9600 GeneAmp PCR System. Cycling conditions were 10 min at 65° C., 8 min at 50° C., 5 min at 95° C. 32 cycles of PCR were performed, each cycle consisting of 30 sec at 94° C., 30 sec at 58° C., and 30 sec at 72° C. The 32nd cycle included a 10 min elongation step at 72° C. to ensure full extension of incomplete DNA fragments."}, "bladder tissue": {"test_system": "bladder tissue", "test": "Cystitis evaluation of formulations in mice, bladder histopathology", "settings": "80 μL intravesical, 7-day interval; 7 mM Big CHAP, 0.05 mM TRITON X-100 or 22% ethanol", "quoted_text": "The formulations were administered intravesically in a volume of 80 μL, and animals were observed over a 7-day interval. After sacrifice, bladders were paraffin-embedded, sectioned, and stained with hematoxylin and eosin for pathologic evaluation."}, "[3]": {"test": "Solubility and dissolution behaviour", "format": "physicochemical"}, "bladder [4]": {"test_system": "bladder", "test": "Gene transfer activity of Syn3 in Big CHAP or Tween-80, β-galactosidase expression in bladder", "format": "in vivo, rat", "settings": "for gene transfer activity / β-gal expression: 0.5 mg/ml in 7.8 mM Big CHAP", "method": "(§1) Following removal of virus and flushing of the bladder, the animals were allowed to recover. After 48 hours the animals were sacrificed, their bladders fixed, and stained for β-gal expression. Following photographic recording, bladders were embedded in paraffin for sectioning and histological examination."}, "bladder urothelium": {"test_system": "bladder urothelium", "test": "Histological examination of Syn3 treated bladders (infiltrates)", "format": "in vivo, rat", "settings": "for inflammation / infiltration at lower concentration of Syn3: 0.25 mg/ml compared with 0.5 mg/ml, decreasing concentrations in Big CHAP or Tween 80", "method": "as §1\nBladders from animals treated with Syn3-rAd (β-Gal) were prepared for histological examination to determine the levels of viral infection, as well as the degree of viral penetration into the bladder urothelium."}, "[5]": {"test": "Stability of Syn3 in solution", "format": "physicochemical", "method": "However, if left at room temperature at this high concentration (100 mg/ml), it will solidify within 24 hours."}, "bladder [6]": {"test_system": "bladder", "test": "Gene transfer activity of water-soluble Syn3 analogs in vivo, whole organ Xgal staining", "design": "species or system rat", "settings": "summary, Concentration 1 mg/ml", "method": "A concentration of 1 mg/ml was chosen for initial testing of both compounds.\nThe solution of A-TMA was prepared by dissoluting 10 mg of A-TMA into 10 ml Dulbecco's PBS. Glycerol was added to provide a final concentration of 10 mg/ml. All solutions were sterile filtered prior to use (0.2 μm Acrodisc syring filter). The virus (BGCG 70AAB) was diluted 1:10 into either this A-TMA solution, or into Dulbecco's PBS-glycerol prior to administration.\nTen mg of A-HCl was dissoluted into this buffer and sterile filtered prior to use (0.2 μm Acrodisc suring filter). The virus (BGCG 70AAB) was diluted 1:10 into this solution prior to administration. For comparison, the virus diluted into this buffer without A-HCl was also tested.\nFemale HSD rats were anesthetized using isofluorane. The rats were transuretherally catheterized into the bladder using PE50 tubing lubricated with K-Y jelly. A tie-off was installed on the external urethra to prevent back leakage. Urine, if any, was removed and the bladder was flushed with 0.5 ml PBS and emptied. rAd was diluted to the desired concentration (1:10) and instilled for 45 minutes. The dosing material was removed, noting the return volume. The bladder was flushed with 0.5 ml PBS and emptied. The tie-off and catheter were removed, and the animals were allowed to recover in cages.\nAfter 48 hours, the animals were sacrificed and their bladders inflation fixed with 0.5 ml fixative for 1 hour. The bladders were then rinsed overnight and whole organ Xgal staining was conducted."}, "bladder epithelium [7]": {"test_system": "bladder epithelium", "test": "rAd-βgal gene transfer to bladder epithelium in detergent formulations, Xgal staining score and gross pathology", "settings": "detergents at their critical micellization concentration", "method": "rAd-βgal was formulated in different detergents at their critical micellization concentration to evaluate efficiency of gene transfer to the bladder epithelium. Female rats (about 200 g b/w, Harlan Sprague Dawley) were anesthetized with isoflurane and received a single intravesical administration of rAd-βgal (1×10^11 PN/ml) in different detergent formulations (see Table I). Before instillation, bladders were flushed with PBS and then emptied. rAd-βgal was then instilled in a volume of 0.5 ml. The instilled solution was retained in the bladder for 45 minutes. The bladders were then flushed with PBS, and the animals were permitted to recover from the procedure. 48 hours after administration, the rats were sacrificed, the bladders harvested, and fixed in formalin. After fixation, the bladders were opened longitudinally so that the urothelium was exposed to the chromogen (Xgal), that is converted to a blue color, if reporter gene (β-galactosidase) expression is present. The luminal epithelial surface of the whole bladder was photographed an blue staining scored: + (minimal staining), ++ (moderate staining), +++ intense staining covering the whole bladder epithelial surface.\nBriefly, in anaesthetized female rats rAd-βgal (1×10^11 PN/ml) was administered into the bladder via an intravesical catheter. rAd-βgal was formulated in different concentrations of Big CHAP (CALBIOCHEM®). A volume of 0.5 ml was injected and remained instilled in the bladder for 45 minutes. The animals were sacrificed 48 hours later, the bladder fixed in 4% formalin/glutaraldehyde, opened longitudinally, and the β-galactosidase enzyme activity measured using Xgal substrate. The intensity of blue staining correlates with the βgal-transgene expression.\nEffects of higher recombinant adenovirus concentrations were also tested. Briefly, in anaesthetized female rats different concentrations of rAd-βgal, formulated in 7 mM Big CHAP (CALBIOCHEM®) were administered into the bladder via an intravesical catheter. The animals were sacrificed 48 hours later, the bladder fixed in 4% formalin/glutaraldehyde, opened longitudinally, and Xgal stained."}}, "note": "“Also recorded” adds a separate entry of the source."}
{"compound": "CCO", "note": "[ethanol]", "values": [{"measurement": "β-galactosidase expression of the transitional bladder epithelium (histologic evaluation)", "setting": "bladder epithelium [1]; ethanol added to the adenovirus formulation", "result": "increased β-galactosidase expression"}, {"measurement": "β-galactosidase expression in the luminal epithelial surface", "setting": "bladder epithelium [1]; rAd-βgal 1.7×10^11 PN/mL diluted in 30% (v/v) ethanol, intravesical 45 min, 2 days after administration", "result": "greatly enhanced"}, {"measurement": "ACNRB expression in bladder (RT-PCR)", "setting": "[2]; ACNRB 4×10^10 PN/mL in 22% (v/v) ethanol or 3 mM Big CHAP versus VPBS, 48 hours", "result": "enhanced expression"}, {"measurement": "ACNRB expression in bladder (RT-PCR)", "setting": "[2]; ACNRB in 30% (v/v) ethanol compared to VPBS, 2 days", "result": "Increased ACNRB expression"}, {"measurement": "macrophage infiltration into the bladder tissue / cystitis", "setting": "bladder tissue", "result": "significant cystitis"}]}
{"compound": "CC(CCC(=O)NCCCN(CCCNC(=O)C(O)C(O)C(OC1OC(CO)C(O)C(O)C1O)C(O)CO)C(=O)CCC(C)C1CCC2C3C(O)CC4CC(O)CCC4(C)C3CC(O)C12C)C1CCC2C3C(O)CC4CC(O)CCC4(C)C3CC(O)C12C", "note": "(stereo not drawn) [Syn3]", "values": [{"measurement": "dissolution in Tween 80", "setting": "[3]; 1 mg/ml in 0.1% Tween 80", "result": "clear solution; also recorded: readily solubilized"}, {"measurement": "behaviour on dissolution in water", "setting": "[3]; 1 mg/ml in water", "result": "appeared to form vesicles"}, {"measurement": "behaviour on dissolution in water", "setting": "[3]; 10 mg/ml in water", "result": "formed a gel"}, {"measurement": "amount of Syn3 that dissolutes", "setting": "[3]; into 15 mM Big CHAP", "result": "Up to 5 mg/ml"}, {"measurement": "time to completely dissolute", "setting": "[3]; into 10% Tween-80", "result": "several hours"}, {"measurement": "gene transfer activity", "setting": "bladder [4]; 0.25 mg/ml in 3.9 mM Big CHAP", "result": "Very high levels of gene transfer"}, {"measurement": "gene transfer activity", "setting": "bladder [4]; 0.25 mg/ml in 3.9 mM Big CHAP, listed as I3A", "result": "high levels of gene transfer activity"}, {"measurement": "gene transfer activity / β-gal expression", "setting": "bladder [4]", "result": "greatly enhance gene transfer and β-gal expression; also recorded: very high levels of gene transfer activity; also recorded: highest levels of β-galactosidase expression; also recorded: extremely high"}, {"measurement": "gene transfer activity / β-gal expression", "setting": "bladder [4]; listed as I3A", "result": "High levels of gene transfer"}, {"measurement": "gene transfer activity", "setting": "bladder [4]; 0.5 mg/ml in 0.05% Tween-80", "result": "more regions lacking β-galactosidase expression; also recorded: slightly reduced"}, {"measurement": "gene transfer activity", "setting": "bladder [4]; 1 mg/ml in 0.1% Tween 80", "result": "found to enhance gene transfer; also recorded: can enhance gene transfer; also recorded: very high levels of gene transfer; also recorded: consistently high levels of gene transfer; also recorded: effective in enhancing gene transfer; also recorded: Approximately equal levels of gene transfer"}, {"measurement": "gene transfer activity", "setting": "bladder [4]; 1 mg/ml in 0.1% Tween 80, listed as I3A", "result": "very high levels of gene transfer; also recorded: High levels of β-galactosidase activity"}, {"measurement": "gene transfer", "setting": "bladder [4]; 1 mg/ml in 0.4% Tween-80", "result": "almost no gene transfer"}, {"measurement": "gene transfer, 0.5 mg/ml in 7.8 mM Big CHAP compared with 1 mg/ml in 0.1% Tween-80", "setting": "bladder [4]; rat, in vivo", "result": "approximately equal levels of gene transfer enhancement; also recorded: comparable"}, {"measurement": "inflammation / infiltration at lower concentration of Syn3", "setting": "bladder urothelium", "result": "proportionally lower infiltration"}, {"measurement": "inflammation / infiltration at lower concentration of Syn3", "setting": "bladder urothelium; listed as I3A", "result": "less inflammation"}, {"measurement": "recruitment of infiltrates to the bladder", "setting": "bladder urothelium; 0.5 mg/ml in 7.8 mM Big CHAP with rAd", "result": "massive recruitment of infiltrates to the bladder"}, {"measurement": "infiltration", "setting": "bladder urothelium; Syn3 administered alone (no virus)", "result": "a significant amount of infiltration; also recorded: significant induction of infiltrates"}, {"measurement": "β-Gal expression on reducing the concentration of Syn3 (histology)", "setting": "bladder urothelium; in either detergent", "result": "concomitant reduction in β-Gal expression"}, {"measurement": "period over which gene transfer activity is retained", "setting": "[5]; 0.25 mg/ml or 0.5 mg/ml in Big CHAP, room temperature", "result": "at least 30 days"}, {"measurement": "period of stability", "setting": "[5]; 1 mg/ml in 0.1% Tween-80, longest period tested", "result": "at least 30 days"}, {"measurement": "period of stability", "setting": "[5]; 100 mg/ml in 10% Tween-80, 4° C.", "result": "at least one week"}, {"measurement": "time to solidify", "setting": "[5]; 100 mg/ml in 10% Tween-80, room temperature", "result": "≤ 24", "unit": "h"}, {"measurement": "stability (in words)", "setting": "[5]; dissoluted into Big CHAP detergent", "result": "very stable"}, {"measurement": "gene transfer activity", "setting": "bladder [6]", "result": "++++"}]}
{"compound": "Triton X-100 [reference compound]", "values": [{"measurement": "gene transfer to the bladder epithelium (Table I)", "setting": "bladder epithelium [7]", "result": "enhanced gene transfer dramatically"}, {"measurement": "macrophage infiltration into the bladder tissue / cystitis", "setting": "bladder tissue", "result": "slight to mild"}]}
